{"source": "patent US20240376163A1", "about": "“PEPTIDE FOR INHIBITING CALCINEURIN AND USE THEREOF” (Seoul National University R&DB Foundation, priority 2023, published 2024)", "tested_on": "Jurkat T cells", "experiment": "mRNA sequencing of activated Jurkat T cells", "type": "cell-based, human"}
{"molecule": "C=CC[C@@H]1/C=C(\\C)C[C@H](C)C[C@H](OC)[C@H]2O[C@@](O)(C(=O)C(=O)N3CCCC[C@H]3C(=O)O[C@H](/C(C)=C/[C@@H]3CC[C@@H](O)[C@H](OC)C3)[C@H](C)[C@@H](O)CC1=O)[C@H](C)C[C@@H]2OC", "note": "[FK506, Tacrolimus, reference compound]", "values": [{"measurement": "CRIM1 FPKM", "setting": "P + I", "value": 0.305, "unit": "FPKM"}, {"measurement": "CRTAM FPKM", "setting": "P + I", "value": 3.325, "unit": "FPKM"}, {"measurement": "CSF1 FPKM", "setting": "P + I", "value": 1.706, "unit": "FPKM"}, {"measurement": "CSF2 FPKM", "setting": "P + I", "value": 0, "unit": "FPKM"}, {"measurement": "CST7 FPKM", "setting": "P + I", "value": 2.338, "unit": "FPKM"}, {"measurement": "CXCL8 FPKM", "setting": "P + I", "value": 0.937, "unit": "FPKM"}, {"measurement": "CXCR3 FPKM", "setting": "P + I", "value": 0.503, "unit": "FPKM"}, {"measurement": "DSTYK FPKM", "setting": "P + I", "value": 3.501, "unit": "FPKM"}, {"measurement": "FBXO34 FPKM", "setting": "P + I", "value": 14.612, "unit": "FPKM"}, {"measurement": "FMNL2 FPKM", "setting": "P + I", "value": 2.726, "unit": "FPKM"}, {"measurement": "FOSL2 FPKM", "setting": "P + I", "value": 2.204, "unit": "FPKM"}, {"measurement": "FOXO1 FPKM", "setting": "P + I", "value": 1.77, "unit": "FPKM"}, {"measurement": "FXYD5 FPKM", "setting": "P + I", "value": 41.346, "unit": "FPKM"}, {"measurement": "FYN FPKM", "setting": "P + I", "value": 16.523, "unit": "FPKM"}, {"measurement": "GFOD1 FPKM", "setting": "P + I", "value": 4.187, "unit": "FPKM"}, {"measurement": "GRK5 FPKM", "setting": "P + I", "value": 8.481, "unit": "FPKM"}, {"measurement": "GTDC1 FPKM", "setting": "P + I", "value": 4.629, "unit": "FPKM"}, {"measurement": "IL2 FPKM", "setting": "P + I", "value": 0.287, "unit": "FPKM"}, {"measurement": "IL3 FPKM", "setting": "P + I", "value": 0.062, "unit": "FPKM"}, {"measurement": "IL21R FPKM", "setting": "P + I", "value": 2.244, "unit": "FPKM"}, {"measurement": "IL21R-AS1 FPKM", "setting": "P + I", "value": 1.927, "unit": "FPKM"}, {"measurement": "IQCJ-SCHIP1 FPKM", "setting": "P + I", "value": 1.657, "unit": "FPKM"}, {"measurement": "IRF4 FPKM", "setting": "P + I", "value": 0.423, "unit": "FPKM"}, {"measurement": "IRF8 FPKM", "setting": "P + I", "value": 1.19, "unit": "FPKM"}, {"measurement": "ISM1 FPKM", "setting": "P + I", "value": 0.726, "unit": "FPKM"}, {"measurement": "JAK2 FPKM", "setting": "P + I", "value": 5.248, "unit": "FPKM"}, {"measurement": "KCNK1 FPKM", "setting": "P + I", "value": 10.967, "unit": "FPKM"}, {"measurement": "KCNK5 FPKM", "setting": "P + I", "value": 3.906, "unit": "FPKM"}, {"measurement": "LAMP3 FPKM", "setting": "P + I", "value": 6.412, "unit": "FPKM"}, {"measurement": "LAX1 FPKM", "setting": "P + I", "value": 8.052, "unit": "FPKM"}, {"measurement": "LIF FPKM", "setting": "P + I", "value": 0.143, "unit": "FPKM"}, {"measurement": "LOC729603 FPKM", "setting": "P + I", "value": 2.179, "unit": "FPKM"}, {"measurement": "LRRC8B FPKM", "setting": "P + I", "value": 3.555, "unit": "FPKM"}, {"measurement": "LTBP4 FPKM", "setting": "P + I", "value": 8.427, "unit": "FPKM"}, {"measurement": "MAP2K3 FPKM", "setting": "P + I", "value": 41.815, "unit": "FPKM"}, {"measurement": "MIR6775 FPKM", "setting": "P + I", "value": 19.643, "unit": "FPKM"}, {"measurement": "MIR6821 FPKM", "setting": "P + I", "value": 13.626, "unit": "FPKM"}, {"measurement": "MYO1D FPKM", "setting": "P + I", "value": 4.59, "unit": "FPKM"}, {"measurement": "NDFIP1 FPKM", "setting": "P + I", "value": 22.485, "unit": "FPKM"}, {"measurement": "NFATC1 FPKM", "setting": "P + I", "value": 3.793, "unit": "FPKM"}, {"measurement": "NPDC1 FPKM", "setting": "P + I", "value": 4.328, "unit": "FPKM"}, {"measurement": "NR4A2 FPKM", "setting": "P + I", "value": 0.04, "unit": "FPKM"}, {"measurement": "NTRK1 FPKM", "setting": "P + I", "value": 0.836, "unit": "FPKM"}, {"measurement": "PAM FPKM", "setting": "P + I", "value": 1.483, "unit": "FPKM"}, {"measurement": "PDGFA FPKM", "setting": "P + I", "value": 3.25, "unit": "FPKM"}, {"measurement": "PELI1 FPKM", "setting": "P + I", "value": 8.175, "unit": "FPKM"}, {"measurement": "PHACTR2 FPKM", "setting": "P + I", "value": 2.927, "unit": "FPKM"}, {"measurement": "PHEX FPKM", "setting": "P + I", "value": 0.213, "unit": "FPKM"}, {"measurement": "PIM3 FPKM", "setting": "P + I", "value": 42.827, "unit": "FPKM"}, {"measurement": "PKIA FPKM", "setting": "P + I", "value": 13.962, "unit": "FPKM"}, {"measurement": "PLK3 FPKM", "setting": "P + I", "value": 5.257, "unit": "FPKM"}, {"measurement": "PLS3 FPKM", "setting": "P + I", "value": 0.052, "unit": "FPKM"}, {"measurement": "POU2AF1 FPKM", "setting": "P + I", "value": 2.274, "unit": "FPKM"}, {"measurement": "PPIF FPKM", "setting": "P + I", "value": 50.291, "unit": "FPKM"}, {"measurement": "PTPN6 FPKM", "setting": "P + I", "value": 20.906, "unit": "FPKM"}, {"measurement": "PTPN22 FPKM", "setting": "P + I", "value": 6.37, "unit": "FPKM"}, {"measurement": "RDH10 FPKM", "setting": "P + I", "value": 5.856, "unit": "FPKM"}, {"measurement": "REL FPKM", "setting": "P + I", "value": 4.749, "unit": "FPKM"}, {"measurement": "RGS16 FPKM", "setting": "P + I", "value": 1.172, "unit": "FPKM"}, {"measurement": "SCHIP1 FPKM", "setting": "P + I", "value": 1.535, "unit": "FPKM"}, {"measurement": "SERPINB2 FPKM", "setting": "P + I", "value": 2.905, "unit": "FPKM"}, {"measurement": "SHC4 FPKM", "setting": "P + I", "value": 0.663, "unit": "FPKM"}, {"measurement": "SLAMF1 FPKM", "setting": "P + I", "value": 0.217, "unit": "FPKM"}, {"measurement": "SLC35E4 FPKM", "setting": "P + I", "value": 0.952, "unit": "FPKM"}, {"measurement": "SORBS1 FPKM", "setting": "P + I", "value": 0.4, "unit": "FPKM"}, {"measurement": "SPRY1 FPKM", "setting": "P + I", "value": 4.074, "unit": "FPKM"}, {"measurement": "STAT5A FPKM", "setting": "P + I", "value": 3.347, "unit": "FPKM"}, {"measurement": "TAGAP FPKM", "setting": "P + I", "value": 4.352, "unit": "FPKM"}, {"measurement": "TBC1D4 FPKM", "setting": "P + I", "value": 12.549, "unit": "FPKM"}, {"measurement": "TBC1D20 FPKM", "setting": "P + I", "value": 17.7, "unit": "FPKM"}, {"measurement": "TDRD9 FPKM", "setting": "P + I", "value": 1.245, "unit": "FPKM"}, {"measurement": "TIAM2 FPKM", "setting": "P + I", "value": 0.27, "unit": "FPKM"}, {"measurement": "TM4SF1 FPKM", "setting": "P + I", "value": 0.439, "unit": "FPKM"}, {"measurement": "TNFRSF4 FPKM", "setting": "P + I", "value": 2.933, "unit": "FPKM"}, {"measurement": "TNFSF9 FPKM", "setting": "P + I", "value": 2.568, "unit": "FPKM"}, {"measurement": "TNFSF14 FPKM", "setting": "P + I", "value": 1.023, "unit": "FPKM"}, {"measurement": "TNS3 FPKM", "setting": "P + I", "value": 0.678, "unit": "FPKM"}, {"measurement": "VAMP1 FPKM", "setting": "P + I", "value": 14.793, "unit": "FPKM"}, {"measurement": "XCL1 FPKM", "setting": "P + I", "value": 0, "unit": "FPKM"}, {"measurement": "XCL2 FPKM", "setting": "P + I", "value": 0, "unit": "FPKM"}, {"measurement": "ZNF704 FPKM", "setting": "P + I", "value": 0.014, "unit": "FPKM"}, {"measurement": "ZNF827 FPKM", "setting": "P + I", "value": 1.521, "unit": "FPKM"}, {"measurement": "ABCB10 FPKM", "setting": "P+I", "value": 10.164, "unit": "FPKM"}, {"measurement": "ACTG1 FPKM", "setting": "P+I", "value": 1002.221, "unit": "FPKM"}, {"measurement": "ADAM19 FPKM", "setting": "P+I", "value": 5.532, "unit": "FPKM"}, {"measurement": "ADD3 FPKM", "setting": "P+I", "value": 13.6, "unit": "FPKM"}, {"measurement": "ADORA2B FPKM", "setting": "P+I", "value": 8.219, "unit": "FPKM"}, {"measurement": "AGO2 FPKM", "setting": "P+I", "value": 13.242, "unit": "FPKM"}, {"measurement": "AIM1 FPKM", "setting": "P+I", "value": 37.047, "unit": "FPKM"}, {"measurement": "APOBEC3A_B FPKM", "setting": "P+I", "value": 10.242, "unit": "FPKM"}, {"measurement": "APOBEC3B FPKM", "setting": "P+I", "value": 41.16, "unit": "FPKM"}, {"measurement": "APOBEC3C FPKM", "setting": "P+I", "value": 16.851, "unit": "FPKM"}, {"measurement": "APOBEC3D FPKM", "setting": "P+I", "value": 10.187, "unit": "FPKM"}, {"measurement": "APOL2 FPKM", "setting": "P+I", "value": 89.267, "unit": "FPKM"}, {"measurement": "APOL6 FPKM", "setting": "P+I", "value": 46.937, "unit": "FPKM"}, {"measurement": "AQP3 FPKM", "setting": "P+I", "value": 66.037, "unit": "FPKM"}, {"measurement": "ARAP2 FPKM", "setting": "P+I", "value": 15.321, "unit": "FPKM"}, {"measurement": "ARC FPKM", "setting": "P+I", "value": 9.966, "unit": "FPKM"}, {"measurement": "ARHGAP23 FPKM", "setting": "P+I", "value": 2.576, "unit": "FPKM"}]}
